Activity data for three molecules are collected here from ChEMBL document CHEMBL1147224, “Resveratrol and two monomethylated stilbenes from Israeli Rumex bucephalophorus and their antioxidant potential” (J Nat Prod, 2003).

The series can be described thus: ABTS radical scavenging activity assessed as trolox equivalent antioxidant capacity after 10 mins. Format: physicochemical.

SMILES strings stand for the structures.

Turning to `Oc1ccc(/C=C/c2cc(O)cc(O)c2)cc1` [RESVERATROL], the Activity came out at 2.74.

As for `COc1cc(O)cc(/C=C/c2ccc(O)cc2)c1`, the outcome was Active.

Consider `COc1ccc(/C=C/c2cc(O)cc(O)c2)cc1` [RESVERATROL 4'-METHYL ETHER], for which the result was Active.
